The source of these data is patent publication EP2061765B1, “Serine-threonine protein kinase and PARP modulators” (Senhwa Biosciences, Inc., priority 2006, dated 2008).

Common to all, as to assay: Cell proliferation assay (Alamar Blue)
Holding throughout (format): cell-based
On the technique in general: Alamar Blue is a resazurin reagent that responds to reducing activity.

For one test, the system named is HCT-116. To be noted: Homo sapiens, 96 h, HCT-116 cells, four days.
For a further test, the system named is MiaPaCa. To be noted: Homo sapiens, MIA PaCa-2, 96 h, MiaPaCa cells, four days. As for the experimental part:
(§1) A representative cell-proliferation assay protocol using Alamar Blue dye (stored at 4°C, use 20ul per well) is described hereafter. 96-well plate setup and compound treatment • a. Split and trypsinize cells. • b. Count cells using hemocytometer. • c. Plate 4,000-5,000 cells per well in 100 µl of medium and seed into a 96-well plate according to the following plate layout. Add cell culture medium only to wells B10 to B12. Wells B1 to B9 have cells but no compound added. [formula] [formula] • d. Add 100 µl of 2X drug dilution to each well in a concentration shown in the plate layout above. At the same time, add 100 µl of media into the control wells (wells B10 to B12). Total volume is 200 µl/well. • e. Incubate four (4) days at 37°C, 5% CO2 in a humidified incubator. • f. Add 20µl Alamar Blue reagent to each well. • g. Incubate for four (4) hours at 37°C, 5% CO2 in a humidified incubator. • h. Record fluorescence at an excitation wavelength of 544nm and emission wavelength of 590nm using a microplate reader.
(§2) In the assays, cells are cultured with a test compound for approximately four days, the dye then is added to the cells and fluorescence of […] dye is detected after approximately four hours. Different types of cells can be utilized in the assays (e.g., HCT-116 human colorectal carcinoma cells, PC-3 human prostatic cancer cells and MiaPaca human pancreatic carcinoma cells). Anti-proliferative effects of representative compounds are provided hereafter.

Another test relates to Jurkat. To be noted: Homo sapiens, 96 h, Jurkat cells, four days. As for the experimental part:
as §1, §2

Structures are written as SMILES.

By IC50 is commonly meant the midpoint of a concentration-inhibition curve. Low readings indicate higher potency, high ones lower potency. The molecule `c1ccc(Nc2nc3cc(-c4nnn[nH]4)ccc3c3cnccc23)cc1` yielded a 50% inhibitory concentration (IC50) with HCT-116 of over 10 µM.
On the same count and under the same terms, next, `N#Cc1ccc2c(c1)nc(Nc1ccccc1)c1ccncc12`: 6.9 µM.
The same measure, in the same setting: the same measure for `Cc1noc(-c2ccc3c(c2)nc(Nc2ccccc2)c2ccncc23)n1`: over 10 µM.
On to `COC(=O)c1ccc2c(c1)nc(Cl)c1ncncc12`, for which the half-inhibitory concentration (IC50) was determined as 2.92 µM in the test on MiaPaCa and 1.71 µM in the test on HCT-116.
As for `COC(=O)c1ccc2c(c1)nc(Nc1cccc(Cl)c1)c1ccncc12`, the IC50 in the test on MiaPaCa and in the test with HCT-116 was over 10 µM in each case.
As for `COC(=O)c1ccc2c(c1)nc(Nc1ccccc1)c1nc(SC)ncc12`, the concentration for half-maximal inhibition (IC50) with MiaPaCa is over 10 µM; in the test on HCT-116, 9.56 µM.
The matching figures for `COC(=O)c1ccc2c(c1)nc(Nc1ccccc1)c1nc(S(C)(=O)=O)ncc12`: 2.82 µM and 0.97 µM.
For the molecule `CNc1ncc2c(n1)c(Nc1ccccc1)nc1cc(C(=O)OC)ccc12`, the IC50 in the test on MiaPaCa is over 10 µM; in the test with HCT-116, 4.06 µM.
As to `OCc1ccc2c(c1)nc(Nc1cccc(Cl)c1)c1ccncc12`, the figures for the half-inhibitory concentration (IC50) in the test with MiaPaCa and in the test with HCT-116 were 4.05 µM and 4.28 µM, respectively.
As for `O=C(O)c1ccc2c(c1)nc(Nc1ccccc1)c1nc(NC3CC3)ncc12` [drawing 318], the concentration for half-maximal inhibition (IC50) came out at 0.68 µM in the test on MiaPaCa, 2.42 µM in the test with Jurkat and 1.94 µM in the test on HCT-116.
For `CCCNc1ncc2c(n1)c(Nc1ccccc1)nc1cc(C(=O)O)ccc12` [drawing 319] the same measures were 2.99 µM, 4.53 µM and over 10 µM.
As for `COCCNc1ncc2c(n1)c(Nc1ccccc1)nc1cc(C(=O)O)ccc12` [drawing 320], the IC50 is 3.2 µM in the test with MiaPaCa, 5.8 µM with Jurkat and over 10 µM with HCT-116.
The matching figures for `O=C(O)c1ccc2c(c1)nc(Nc1ccccc1)c1nc(NCCO)ncc12` [drawing 321]: 16.2 µM, 26.1 µM and over 10 µM.
For `O=C(O)c1ccc2c(c1)nc(Nc1ccccc1)c1nc(NCCCO)ncc12` [drawing 322] the same measures were 11.9 µM, 7.9 µM and over 10 µM.
The matching figures for `O=C(O)c1ccc2c(c1)nc(Nc1ccccc1)c1nc(NC3CCNCC3)ncc12` [drawing 323]: 14.4 µM, 18.9 µM and over 10 µM.
For the molecule `CCN(CC)CCNc1ncc2c(n1)c(Nc1ccccc1)nc1cc(C(=O)O)ccc12` [drawing 324], the IC50 in the test on MiaPaCa was 1.45 µM; with Jurkat, 13.1 µM; in the test with HCT-116, over 10 µM.
For `O=C(O)c1ccc2c(c1)nc(Nc1ccccc1)c1nc(NCCN3CCOCC3)ncc12` [drawing 325] the same measures were 1.69 µM, 5.7 µM and over 10 µM.
With `O=C(O)c1ccc2c(c1)nc(Nc1ccccc1)c1nc(NCCCN3CCOCC3)ncc12` [drawing 326], the IC50 with MiaPaCa was 1.36 µM; in the test with Jurkat, 2.18 µM; in the test with HCT-116 it was over 10 µM.
For `C#Cc1cccc(Nc2nc3cc(C(=O)O)ccc3c3cnc(NC4CC4)nc23)c1` [drawing 327] the same measures were 1.2 µM, 1.27 µM and 7.3 µM.
The matching figures for `C#Cc1cccc(Nc2nc3cc(C(=O)O)ccc3c3cnc(NCCC)nc23)c1` [drawing 328]: 2.32 µM, 2.67 µM and over 10 µM.
As to `C#Cc1cccc(Nc2nc3cc(C(=O)O)ccc3c3cnc(NCCOC)nc23)c1` [drawing 329], the IC50 in the test on MiaPaCa turned out to be 1 µM; in the test on Jurkat, 0.94 µM; in the test on HCT-116, 8.05 µM.
The matching figures for `C#Cc1cccc(Nc2nc3cc(C(=O)O)ccc3c3cnc(NC4CCNCC4)nc23)c1` [drawing 330]: 8.62 µM, 9.55 µM and over 10 µM.
For `C#Cc1cccc(Nc2nc3cc(C(=O)O)ccc3c3cnc(NCCCN4CCOCC4)nc23)c1` [drawing 331] the same measures were 2.26 µM, 3.69 µM and over 10 µM.
The matching figures for `C#Cc1cccc(Nc2nc3cc(C(=O)O)ccc3c3cnc(NC)nc23)c1` [drawing 332]: 2.34 µM, 1.29 µM and 4.69 µM.
With `O=C(O)c1ccc2c(c1)nc(Nc1ccc(Cl)c(C(F)(F)F)c1)c1ccncc12` [drawing 333], the 50% inhibitory concentration (IC50) worked out at 9.09 µM with MiaPaCa, 3.05 µM in the test with Jurkat and 3.99 µM with HCT-116.
On to `O=C(O)c1ccc2c(c1)nc(Nc1cccc(Cl)c1)c1nc(NC3CC3)ncc12` [drawing 334], for which the 50% inhibitory concentration (IC50) with MiaPaCa worked out at 0.47 µM; in the test on Jurkat it was 1.29 µM; in the test with HCT-116, 7.82 µM.
For `O=C(O)c1ccc2c(c1)nc(Nc1cccc(C(F)(F)F)c1)c1ncncc12` [drawing 335] the same measures were 2.23 µM, 2.53 µM and over 10 µM.
For `CCOc1ncc2c(n1)c(Nc1cccc(C(F)(F)F)c1)nc1cc(C(=O)O)ccc12` [drawing 336], the IC50 in the test on MiaPaCa was 18.1 µM; in the test with Jurkat, 35.9 µM; with HCT-116, over 10 µM.
For `Nc1ncc2c(n1)c(Nc1cccc(Cl)c1)nc1cc(C(=O)O)ccc12` [drawing 339] the same measures were 0.88 µM, 1.14 µM and over 10 µM.
The matching figures for `CC(C)Nc1ncc2c(n1)c(Nc1cccc(Cl)c1)nc1cc(C(=O)O)ccc12` [drawing 340]: 5.45 µM, 18.4 µM and over 10 µM.
For `O=C(O)c1ccc2c(c1)nc(Nc1cccc(C(F)(F)F)c1)c1nc(NC3CC3)ncc12` [drawing 341], the IC50 amounted to 0.65 µM in the test on MiaPaCa and 3.13 µM with Jurkat.
In the case of `CCNc1ncc2c(n1)c(Nc1cccc(Cl)c1)nc1cc(C(=O)O)ccc12` [drawing 342], the IC50 with MiaPaCa was found to be 0.92 µM; in the test on Jurkat it was 3.06 µM.
With `CNc1ncc2c(n1)c(Nc1ccc(F)c(Cl)c1)nc1cc(C(=O)O)ccc12` [drawing 343], the concentration for half-maximal inhibition (IC50) in the test on MiaPaCa was 0.65 µM; with Jurkat, 1.24 µM; in the test with HCT-116, over 10 µM.
The matching figures for `Nc1ncc2c(n1)c(Nc1ccc(F)c(Cl)c1)nc1cc(C(=O)O)ccc12` [drawing 344]: 0.95 µM, 4.34 µM and 11.2 µM.
Turning to `O=C(O)c1ccc2c(c1)nc(Nc1ccc(F)c(Cl)c1)c1nc(NC3CC3)ncc12` [drawing 345], the IC50 is 0.37 µM with MiaPaCa, 1.54 µM in the test with Jurkat and over 10 µM in the test with HCT-116.
Regarding `COCCNc1ncc2c(n1)c(Nc1ccc(F)c(Cl)c1)nc1cc(C(=O)O)ccc12` [drawing 346], the 50% inhibitory concentration (IC50) was 1.08 µM with MiaPaCa, 0.41 µM in the test with Jurkat and over 10 µM in the test with HCT-116.
Turning to `C#Cc1cccc(Nc2nc3cc(C(=O)O)ccc3c3cnc(NCCOCC)nc23)c1` [drawing 347], the IC50 in the test on MiaPaCa was 0.62 µM; in the test on Jurkat, 1.13 µM; in the test on HCT-116, over 10 µM.
For `C#Cc1cccc(Nc2nc3cc(C(=O)O)ccc3c3cnc(NCCCOCC)nc23)c1` [drawing 348] the same measures were 0.87 µM, 0.39 µM and over 10 µM.
In the case of `C#Cc1cccc(Nc2nc3cc(C(=O)O)ccc3c3cnc(NCCCOC(C)C)nc23)c1` [drawing 349], the 50% inhibitory concentration (IC50) was 2.01 µM in the test with MiaPaCa, 2.37 µM in the test on Jurkat and over 10 µM with HCT-116.
The matching figures for `O=C(O)c1ccc2c(c1)nc(Nc1cccc(Cl)c1)c1nc(O)ncc12` [drawing 350]: over 50 µM, over 50 µM and over 10 µM.
In the case of `Cc1ncc2c(n1)c(Nc1cccc(Cl)c1)nc1cc(C(=O)O)ccc12` [drawing 351], the values for the IC50 with MiaPaCa, in the test on Jurkat and in the test with HCT-116 were 5.39 µM, 4.95 µM and over 10 µM, respectively.
With `C#Cc1cccc(Nc2nc3cc(C(=O)OC)ccc3c3cnc(NOC)nc23)c1` [drawing 352], the values for the 50% inhibitory concentration (IC50) with MiaPaCa, in the test on Jurkat and in the test on HCT-116 were over 50 µM, 27 µM and over 10 µM, respectively.
For `COC(=O)c1ccc2c(c1)nc(Nc1cccc(Cl)c1)c1nc(NCCC(N)=O)ncc12` [drawing 353] the same measures were 17.1 µM, 4.41 µM and over 10 µM.
The matching figures for `NC(=O)CCNc1ncc2c(n1)c(Nc1cccc(Cl)c1)nc1cc(C(=O)O)ccc12` [drawing 354]: over 50 µM, 37.7 µM and over 10 µM.
The matching figures for `O=C(O)CCNc1ncc2c(n1)c(Nc1cccc(Cl)c1)nc1cc(C(=O)O)ccc12` [drawing 355]: over 50 µM, over 50 µM and over 10 µM.
Regarding `O=C(NC1CC1)c1ccc2c(c1)nc(Nc1cccc(C(F)(F)F)c1)c1nc(NC3CC3)ncc12` [drawing 365], the 50% inhibitory concentration (IC50) with Jurkat was 3.92 µM; in the test with HCT-116, over 10 µM.
With `CC(C)OC(=O)Nc1ccc2c(c1)nc(Nc1cccc(C(F)(F)F)c1)c1nc(NC3CC3)ncc12` [drawing 370], the IC50 in the test on Jurkat is 1.16 µM; in the test on HCT-116, over 10 µM.
